Assay results published in patent publication US20240209028A1, “CNP COMPOUNDS” (priority 2022, published 2024).
Where two headings read alike, the source gives them in different places. Starred links: 1 amine or outer side, 2 acyl side, 3 side chain; linkers in the order of their positions; H or OH if unused. Positions of bridges follow the written chain, without caps; N, C: chain ends. Residues, ends and D or L forms follow the SMILES beside them. *: point of attachment. C18 diacid = O=C(O)CCCCCCCCCCCCCCCCC(=O)*; γGlu = O=C(O)[C@H](CCC(=O)[*:2])N[*:1]; AEEA = NCCOCCOCC(=O)O

Test: PK of CNP compounds after i.v. and s.c. administration to rats
Conditions: male, Sprague Dawley, in vivo, rat; for clearance: read-out: Cl (L/hr/kg), i.v. administration (converted)
Method: In order to assess the i.v. and s.c. PK/PD profile of CNP compounds of the present invention, formulations of CNP compounds were administered to rats, blood samples taken and exposure and cGMP response measured.
Quantitative plasma analysis of CNP-compounds: Plasma concentrations of CNP compounds were assayed by plasma protein precipitation and analysed by turboflow liquid chromatography mass spectrometry (TF-LC-MS). Calibrators were prepared by spiking either blank rat or minipig plasma with the relevant CNP compound in the range from 0.5 to 2000 nM. Calibrators, plasma blanks or study samples were prepared for TF-LC-MS by protein precipitation by adding three or four volumes of either ethanol or methanol containing 20 nM of internal standard to one volume of sample. For some compounds, formic acid was added to the precipitation reagent (the final concentration was 1% v/v). After the addition of the precipitation reagent, the mixture was centrifuged at 6200 rpm at 4° C. for 30 minutes. After centrifugation, one volume of supernatant was mixed with two volumes of water (with 1% v/v formic acid). The mixture was analysed by TF-LC-MS using a Cyclone turboflow column (0.5×50 mm, ThermoFisher Scientific) and either a XBridge Protein BEH C4 3.5 μm 300 Åor a XBridge Protein BEH C18 3.5 μm 130 Åanalytical column (both were 50×2.1 mm and obtained from Waters). […] The mass spectrometer was operated in positive ionisation mode. A TSQ Altis mass spectrometer (ThermoFisher Scientific) was used as detector in selected reaction monitoring mode (specific transition were optimised for each CNP compound). Linear calibration curves (weighed 1/×2) were used for calculating the concentration in the plasma samples. Quality control samples were included. The deviation between nominal and calculated concentration in the calibrators and quality control samples were below 15%.
Animals and dosing: Groups of 4-6 rats (male, Sprague Dawley, 350 g at arrival, Janvier, France) per compound and route of administration were dosed with a CNP compound formulated either in A) 8 mM sodium phosphate, 250 mM glycerol, 0.007% polysorbate 20, pH 7.4 or B) 5 mM sodium acetate, 250 mM glycerol, 0.007% polysorbate 20, pH 4.0 depending on the respective compound. S.c. dose was 300 nmol/kg, at a concentration of […] resulting in a dosing volume of 0.3 mL/kg, whereas i.v. dose was 100 nmol/kg, at a concentration of […] resulting in a dosing volume of 1 mL/kg.
Sampling: Sublingual blood samples of 250 uL were collected from unanaesthetised rats in EDTA-coated vials (Microvette 600K3E ref #15.1673.100 Sarstedt) at baseline (-1 h before dosing) as well as 5 min (only i.v. dosed groups), 2 h, 6 h, 24 h, 48 h and 72 h (only for exposure analysis) post-dosing. The blood samples were quickly stored on ice and centrifuged (4° C., 8000 RPM, 5 min) within 10 min of collection. Plasma samples of 50 μL were transferred to each micronic tube for either exposure or cGMP analysis, kept on dry ice and stored in a freezer (−20° C.). Rats had access to food (Altromin) and tap water ad libitum.
Analysis: PK parameters were calculated by non-compartment analysis (NCA) using software Phoenix WinNonlin (ver. 8.1 or later, Certara) for each animal. Clearance (Cl) was calculated as: Dose/AUCinf (linear up, log down). […] Bioavailability was calculated as dose normalized AUC's: (AUC(sc)/Dose(sc))/(AUC(iv)/Dose(iv)). Values in the table are means from individual animals (n=4-6 individual animals). The subsequent plots for cGMP plasma concentration versus time are (Y-axis) mean cGMP concentration (n=4-6 individual animals) after IV dosing and (X-axis) nominal plasma sampling time.
Plasma cGMP are reported as the mean.

[1] = iv, i.v., about 100 nmol/kg, read-out: T½ (hr), i.v. administration (converted)

Structure (SMILES) | clearance (iv, i.v., about 100 nmol/kg) | half-life [1] | bioavailability (sc, s.c. bioavailability, about 300 nmol/kg, read-out: F (%), s.c. administration) | half-life (sc, s.c., about 300 nmol/kg, read-out: T½ (hr), s.c. administration (converted))
CC[C@H](C)[C@@H]1NC(=O)[C@H](CCCNC(=N)N)NC(=O)[C@H](CC(=O)O)NC(=O)[C@H](CC(C)C)NC(=O)[C@@H]2CCCN2C(=O)[C@H](CC(C)C)NC(=O)CNC(=O)[C@H](Cc2ccccc2)NC(=O)[C@@H](NC(=O)CNC(=O)[C@H](CO)NC(=O)[C@H](CO)NC(=O)[C@H](CC(C)C)NC(=O)CNC(=O)[C@H](CCCCN)NC(=O)[C@H](CCCCN)NC(=O)[C@H](CCC(N)=O)NC(=O)[C@H](C)NC(=O)CNC(=O)[C@H](CCCCN)NC(=O)[C@H](Cc2ccc(O)cc2)NC(=O)COCCOCCNC(=O)COCCOCCNC(=O)COCCOCCNC(=O)CC[C@H](NC(=O)CC[C@H](NC(=O)CCCCCCCCCCCCCCCCC(=O)O)C(=O)O)C(=O)O)CSSC[C@@H](C(=O)O)NC(=O)CNC(=O)[C@H](CC(C)C)NC(=O)CNC(=O)[C@H](CO)NC(=O)[C@H](CC(C)C)NC(=O)[C@H](CO)NC(=O)CNC1=O [compound 1356] ({C18 diacid-γGlu-γGlu-AEEA-AEEA-AEEA}-YKGAQKKGLSSGCFGLPLDRIGSLSGLGC-OH; disulfide 13-29; C-terminus assumed) | 0.0141 L/h/kg | 3.47 h | – | –
CC[C@H](C)[C@@H]1NC(=O)[C@H](CCCNC(=N)N)NC(=O)[C@H](CC(=O)O)NC(=O)[C@H](CC(C)C)NC(=O)[C@@H]2CCCN2C(=O)[C@H](CC(C)C)NC(=O)CNC(=O)[C@H](Cc2ccccc2)NC(=O)[C@@H](NC(=O)CNC(=O)[C@H](CCCCN)NC(=O)[C@H](CO)NC(=O)CNC(=O)CNC(=O)[C@H](CCCCN)NC(=O)[C@H](CCCCN)NC(=O)[C@H](CCC(N)=O)NC(=O)[C@H](C)NC(=O)CNC(=O)[C@H](CCC(=O)O)NC(=O)[C@H](Cc2ccc(O)cc2)NC(=O)COCCOCCNC(=O)COCCOCCNC(=O)CC[C@H](NC(=O)CCCCCCCCCCCCCCCCC(=O)O)C(=O)O)CSSC[C@@H](C(=O)O)NC(=O)CNC(=O)[C@H](CC(C)C)NC(=O)CNC(=O)[C@H](CO)NC(=O)[C@H](CC(C)C)NC(=O)[C@H](CO)NC(=O)CNC1=O [compound 1377] ({C18 diacid-γGlu-AEEA-AEEA}-YEGAQKKGGSKGCFGLPLDRIGSLSGLGC-OH; disulfide 13-29) | 0.00747 L/h/kg | 6.29 h | – | –
CC[C@H](C)[C@@H]1NC(=O)[C@H](CCCNC(=N)N)NC(=O)[C@H](CC(=O)O)NC(=O)[C@H](CC(C)C)NC(=O)[C@@H]2CCCN2C(=O)[C@H](CC(C)C)NC(=O)CNC(=O)[C@H](Cc2ccccc2)NC(=O)[C@@H](NC(=O)CNC(=O)[C@H](CO)NC(=O)[C@H](CO)NC(=O)[C@H](CC(C)C)NC(=O)CNC(=O)[C@H](CCCCN)NC(=O)[C@H](CCCCN)NC(=O)[C@H](CCC(N)=O)NC(=O)[C@H](C)NC(=O)CNC(=O)[C@H](CCC(=O)O)NC(=O)[C@H](Cc2ccc(O)cc2)NC(=O)[C@H](CO)NC(=O)[C@H](CCCNC(=N)N)NC(=O)[C@H](C)NC(=O)[C@H](CCC(N)=O)NC(=O)[C@@H]2CCCN2C(=O)[C@H](Cc2c[nH]cn2)NC(=O)[C@H](CCC(=O)O)NC(=O)[C@H](CCC(N)=O)NC(=O)COCCOCCNC(=O)COCCOCCNC(=O)CC[C@H](NC(=O)CCCCCCCCCCCCCCCCC(=O)O)C(=O)O)CSSC[C@@H](C(=O)O)NC(=O)CNC(=O)[C@H](CC(C)C)NC(=O)CNC(=O)[C@H](CO)NC(=O)[C@H](CC(C)C)NC(=O)[C@H](CO)NC(=O)CNC1=O [compound 1379] ({C18 diacid-γGlu-AEEA-AEEA}-QEHPQARSYEGAQKKGLSSGCFGLPLDRIGSLSGLGC-OH; disulfide 21-37; C-terminus assumed) | 0.0051 L/h/kg | 9.8 h | – | –
CC[C@H](C)[C@@H]1NC(=O)[C@H](CCCNC(=N)N)NC(=O)[C@H](CC(=O)O)NC(=O)[C@H](CC(C)C)NC(=O)[C@@H]2CCCN2C(=O)[C@H](CC(C)C)NC(=O)CNC(=O)[C@H](Cc2ccccc2)NC(=O)[C@@H](NC(=O)CNC(=O)[C@H](CO)NC(=O)[C@H](CO)NC(=O)[C@H](CC(C)C)NC(=O)CNC(=O)[C@H](CCCCN)NC(=O)[C@H](CCCCN)NC(=O)[C@H](CCC(N)=O)NC(=O)[C@H](C)NC(=O)CNC(=O)[C@H](CCCCN)NC(=O)[C@H](Cc2ccc(O)cc2)NC(=O)[C@H](CCCCN)NC(=O)[C@H](CCCNC(=N)N)NC(=O)[C@H](C)NC(=O)CC[C@H](NC(=O)CC[C@H](NC(=O)CC[C@H](NC(=O)CC[C@H](NC(=O)CCCCCCCCCCCCCCCCC(=O)O)C(=O)O)C(=O)O)C(=O)O)C(=O)O)CSSC[C@@H](C(=O)O)NC(=O)CNC(=O)[C@H](CC(C)C)NC(=O)CNC(=O)[C@H](CO)NC(=O)[C@H](CC(C)C)NC(=O)[C@H](CO)NC(=O)CNC1=O [compound 1386] ({C18 diacid-γGlu-γGlu-γGlu-γGlu}-ARKYKGAQKKGLSSGCFGLPLDRIGSLSGLGC-OH; disulfide 16-32) | 0.00605 L/h/kg | 8.16 h | – | –
CC[C@H](C)[C@@H]1NC(=O)[C@H](CCCNC(=N)N)NC(=O)[C@H](CC(=O)O)NC(=O)[C@H](CC(C)C)NC(=O)[C@@H]2CCCN2C(=O)[C@H](CC(C)C)NC(=O)CNC(=O)[C@H](Cc2ccccc2)NC(=O)[C@@H](NC(=O)CNC(=O)[C@H](CCCCN)NC(=O)[C@H](CO)NC(=O)[C@@H](NC(=O)CNC(=O)[C@@H](NC(=O)[C@H](Cc2c[nH]cn2)NC(=O)[C@H](CCC(N)=O)NC(=O)[C@H](C)NC(=O)CNC(=O)[C@H](Cc2c[nH]cn2)NC(=O)[C@H](Cc2ccc(O)cc2)NC(=O)[C@H](CCCCN)NC(=O)[C@H](CCCNC(=N)N)NC(=O)[C@H](C)NC(=O)COCCOCCNC(=O)COCCOCCNC(=O)CC[C@H](NC(=O)CC[C@H](NC(=O)CC[C@H](NC(=O)CCCCCCCCCCCCCCCCC(=O)O)C(=O)O)C(=O)O)C(=O)O)[C@@H](C)O)C(C)C)CSSC[C@@H](C(=O)O)NC(=O)CNC(=O)[C@H](CC(C)C)NC(=O)CNC(=O)[C@H](CO)NC(=O)[C@H](CC(C)C)NC(=O)[C@H](CO)NC(=O)CNC1=O [compound 1420] ({C18 diacid-γGlu-γGlu-γGlu-AEEA-AEEA}-ARKYHGAQHTGVSKGCFGLPLDRIGSLSGLGC-OH; disulfide 16-32) | 0.00764 L/h/kg | 8.34 h | 49.7% | 9.47 h
